Test results: patent publication US11358933B2, “Compounds and methods for inhibiting CYP26 enzymes” (Queen's University at Kingston, priority 2017, dated 2022)

Experiments:
CYP26B1 = CYP26B1 (Homo sapiens (Human), UniProt Q9NR63); assay: Cell-based inhibitor assay ([3H]-RA metabolism), CYP26B1 stably transfected HeLa cells
Experimental: CYP26A1 or CYP26B1 stably transfected HeLa cells were maintained in Minimum Essential Medium (MEM) containing 10% fetal bovine serum (FBS) and 100 μg/mL hygromycin. Exponentially growing cells were harvested by incubation in trypsin. Cells were then collected and re-plated in 48-well culture plates at 5×10^5 cells in 0.2 mL of culture medium containing 0.05 μCi [^3H]-RA in the presence or absence of increasing concentrations of a test compound. The test compounds were diluted in dimethyl sulfoxide (DMSO) and then added in duplicate to wells at 0.01, 0.1, 1, 10 and 100 μM final concentration. As a positive control for inhibition of RA metabolism, cells were also incubated with ketoconazole at the same concentrations as above. Cells were incubated for 3 hours at 37° C. Retinoids were then extracted using the procedure of Bligh, et al., (1959), Canadian Journal of Biochemistry 37, 911-917, which was modified by using dichloromethane instead of chloroform. Each sample's water soluble radioactivity level was quantified using a β-scintillation counter (using Ecolume scintillation fluid, available from MP Biomedicals of Solon, Ohio, USA). IC50 values represented the concentration of inhibitor required to inhibit all trans-RA metabolism by 50%, and were derived from log transformed data.

[1] = tested on: RA target gene (CYP26A1) expression in MCF-7 cells; assay: Enhancement of RA activity assay, QPCR of CYP26A1 expression in MCF-7 cells; assay type: cell-based; conditions: 0.1 μM RA plus 1 μM compound, 24, 48, 72 hours
Experimental: An RA activity assay was used to measure the ability of compounds that inhibit CYP26 to enhance activity of RA, for example, by limiting its catabolism. This assay measured expression of endogenous RA target genes in MCF-7 cells that have been treated with RA and a compound of interest. A compound that inhibits CYP26 activity will have the effect of prolonging the induction of RA target genes in response to RA.
Exponentially growing MCF-7 cells were treated with trypsin, collected and plated into 6-well culture dishes at 300,000 cells per well. Once cells had reached confluency, they were treated with CYP26 inhibitor test compounds or with ketoconazole (a non-selective CYP inhibitor) at a final concentration of 1 μM, or an equal volume of DMSO as a control. […] RNA was harvested using Trizol reagent after 24, 48, and 72 hours of treatment. cDNA was synthesized from 2 μg of total RNA using Superscript III cDNA synthesis kit with random priming (available from Life Technologies, Burlington, ON, Canada). Analysis of expression of the RA inducible CYP26A1 gene was quantified by qPCR normalized against expression of PMM2 with Sybr Select Master Mix (Life Technologies) and gene specific primers in a two-step thermal cycling reaction. Data is provided for a CYP26B1 selective inhibitor, which enhances the induction of CYP26A1. […]

[2] = tested on: RA target genes in primary human bone marrow cells; assay: RA target gene expression in primary human bone marrow stromal cells; assay type: cell-based; conditions: co-treatment with RA
[3] = tested on: mouse OP9 bone marrow stromal cells; assay: RA metabolism by OP9 bone marrow stromal cells; assay type: cell-based
Experimental: These experiments are to assess the ability of primary cells, or cell lines to metabolize RA, and to determine the effect of inhibition of CYP26A1 or CYP26B1 on this ability. For these experiments, cells are plated into 48-well plates and treated with a radiolabeled (^3H) RA. The extent of conversion of this labeled RA to water soluble metabolites is determined as above for in the cell-based inhibitor assay. Primary human bone marrow stromal cells (available from Lonza) were cultured in MyeloCult (available from Stem Cell Technologies, Vancouver, Canada). Mouse OP9 bone marrow stromal cells and MC3T3 pre-osteoblasts were cultured as above. Cells are plated in the appropriate culture medium and allowed to form a monolayer. Cells are then pre-treated with either DMSO (vehicle control) or RA (1 μM) for 24 hours to induce CYP26 expression. Vehicle, and RA induced cells are then exposed to ^3H-RA in the presence or absence of test CYP26 inhibitor to examine the effects on RA metabolism. Cells are incubated for 3 hours with labeled RA, and metabolites extracted and analyzed as above.

MV4-11 cells [4] = assay: Leukemia cell differentiation by FACS (CD11b+), MV4-11 cells with or without stroma; assay type: cell-based, human; conditions: RA plus compound, in the presence of stroma
Experimental: (§1) Many human non-APL AML cell lines are sensitive to RA-induced differentiation. However, co-culture of leukemic cells with bone marrow stromal cells can block this effect of RA. This assay tests the ability of CYP26 inhibitor compounds to overcome the protective effect that stromal cells have on leukemic cell differentiation. For these experiments, OP9 mouse bone marrow stromal cells are grown MEM-α containing 20% FBS, in 24 well plates until a cell monolayer is formed. OP9 cells are then irradiated (15Gy) using a GammaCell 20 cesium-137 source (located at Queen's University) in order to induce growth arrest. Leukemic cells are then added to the irradiated monolayers, or control wells without OP9 cells. AML cell lines (150,000 cells) are then plated onto OP9 monolayers in their appropriated growth medium; THP-1 RPMI-1640 medium containing 10% FBS; MDSL, RPMI-1640 medium containing 10% FBS and 10 ng/ml recombinant human IL-3; Kasumi-1, RPMI-1640 containing 20% FBS; MV4-11, IMDM containing 10% FBS. […] Stained cells are then sorted by FACS in a BD FACS Aria 3 flow cytometer (Queen's University) using FACS Diva software, to assess percentage of cells that are CD11b^+, the relative expression levels of CD11b (by median fluorescence intensity—MFI), or percentage of CD34^+CD38^− leukemic stem cells (LSCs). […]

MV4-11 cells [5] = assay: Leukemia cell apoptosis (FITC-Annexin V), MV4-11 cells; assay type: cell-based, human; conditions: 0.1 μM RA plus 1 μM compound, stromal cells present, 48 hours
Experimental: RA can also induce apoptosis is a variety of cell types, including AML cells. This experiment tests CYP26 inhibitor compounds for their ability to rescue RA-induced apoptosis in the presence of bone marrow stromal cells. For these experiments MV4-11 AML cells are plated as above, in the presence and absence of stromal monolayers. Cells are then treated for 48 hours with RA (0.1 μM). After the treatment period, cells are stained with a FITC-labeled annexin V antibody (available from Thermofisher Scientific), which binds to the surface of apoptotic cells. Cells are then sorted by FACS in a as above and data are expressed as percentage of annexin V^+ (apoptotic) cells.

kasumi-1 human AML cells = assay: CD34+CD38- LSC analysis by FACS, Kasumi-1 cells with or without OP9 stroma; assay type: cell-based; conditions: 1 μM RA plus compound, OP9 stroma present, 72 hours
Experimental: as §1

CYP26B1, sequence (Q9NR63 whole entry): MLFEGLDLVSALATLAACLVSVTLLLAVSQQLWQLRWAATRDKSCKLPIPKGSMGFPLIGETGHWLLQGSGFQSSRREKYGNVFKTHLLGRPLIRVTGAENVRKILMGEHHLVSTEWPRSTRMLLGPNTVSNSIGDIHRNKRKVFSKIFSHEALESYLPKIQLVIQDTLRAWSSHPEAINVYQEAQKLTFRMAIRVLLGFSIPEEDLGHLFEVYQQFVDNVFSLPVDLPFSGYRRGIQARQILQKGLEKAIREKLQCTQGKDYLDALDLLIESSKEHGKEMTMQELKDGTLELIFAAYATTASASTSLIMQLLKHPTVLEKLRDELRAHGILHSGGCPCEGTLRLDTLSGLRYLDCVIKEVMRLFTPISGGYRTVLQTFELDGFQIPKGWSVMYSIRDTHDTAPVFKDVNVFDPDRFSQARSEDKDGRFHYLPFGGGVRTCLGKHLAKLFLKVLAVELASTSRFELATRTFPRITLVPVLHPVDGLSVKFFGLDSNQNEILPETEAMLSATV

CC(C)(C)c1cccc(-c2cc3cc(/C=C/C(=O)O)ccc3[nH]2)c1 [Compound 026]
CYP26B1 inhibition compared with ketoconazole (CYP26B1; FIG. 2): dramatically increased inhibition of CYP26B1 enzyme activity compared with ketoconazole
Selectivity CYP26B1 versus CYP26A1 (CYP26B1; HeLa cell-based assay): highly selective towards CYP26B1
IC50 (CYP26B1; HeLa cell-based assay, 3 hours): 200 nM
CYP26B1 Rel. to keto (CYP26B1; IC50 relative to ketoconazole): 0.02
RA target gene transcription on co-treatment with RA [1]: enhanced RA target gene transcription, and prolonged this response to at least 72 hours
Expression of RA target genes in response to RA, co-treatment [2]: greatly enhanced and prolonged expression of RA target genes
RA metabolism, basal and RA-induced [3]: efficiently blocked basal and RA-induced RA metabolism
RA-induced differentiation (CD11b+ cells) (MV4-11 cells [4]): rescued RA-induced differentiation in the presence of stroma
RA-induced apoptosis (Annexin V positive cells) (MV4-11 cells [5]): rescued by the addition of compound 026
Number of CD34+CD38- cells (LSCs) (kasumi-1 human AML cells): restored the ability of RA to reduce the number of
